Measured values reported in ChEMBL document CHEMBL4028813, “Inhibitors of protein arginine deiminases and their efficacy in animal models of multiple sclerosis” (Bioorg Med Chem, 2017).
Activity calls are given as the source filed them. The calls are words filed in the database; no cut-off is given here.

Columns and labels:
[1] = target: T1, Protein-arginine deiminase type-1 (Homo sapiens) (UniProt Q9ULC6); experiment: Inhibition of human PAD1 up to 10 mM using benzoyl arginine ethylester as substrate preincubated for 30 mins followed by substrate addition measured after 30 mins by colorimetric assay
T1 sequence (whole entry): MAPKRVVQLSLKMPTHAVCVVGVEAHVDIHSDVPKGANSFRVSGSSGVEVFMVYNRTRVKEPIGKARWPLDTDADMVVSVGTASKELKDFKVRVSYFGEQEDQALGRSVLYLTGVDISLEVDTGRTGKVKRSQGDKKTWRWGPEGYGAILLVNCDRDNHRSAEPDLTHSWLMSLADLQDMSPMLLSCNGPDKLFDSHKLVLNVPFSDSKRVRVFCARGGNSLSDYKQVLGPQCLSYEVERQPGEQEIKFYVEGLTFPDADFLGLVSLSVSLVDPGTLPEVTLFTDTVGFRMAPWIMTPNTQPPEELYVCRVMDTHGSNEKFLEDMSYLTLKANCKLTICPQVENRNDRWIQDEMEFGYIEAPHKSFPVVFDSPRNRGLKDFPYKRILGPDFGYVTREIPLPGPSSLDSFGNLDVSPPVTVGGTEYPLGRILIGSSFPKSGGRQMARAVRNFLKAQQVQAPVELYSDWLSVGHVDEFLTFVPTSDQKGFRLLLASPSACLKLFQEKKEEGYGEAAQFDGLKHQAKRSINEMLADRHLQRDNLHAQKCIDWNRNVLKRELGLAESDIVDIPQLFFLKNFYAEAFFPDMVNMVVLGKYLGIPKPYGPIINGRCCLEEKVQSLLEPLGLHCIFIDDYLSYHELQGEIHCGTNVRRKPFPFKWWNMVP

[2] = target: Protein-arginine deiminase type-2 (Mus musculus) (UniProt Q08642); experiment: Inhibition of full length recombinant mouse N-terminal GST-tagged PAD2 expressed in baculovirus infected Sf9 cells up to 10 mM using benzoyl arginine ethyl ester as substrate preincubated for 30 mins followed by substrate addition measured after 30 mins by colorimetric assay
Chain of Protein-arginine deiminase type-2 (Mus musculus) (Q08642 whole entry): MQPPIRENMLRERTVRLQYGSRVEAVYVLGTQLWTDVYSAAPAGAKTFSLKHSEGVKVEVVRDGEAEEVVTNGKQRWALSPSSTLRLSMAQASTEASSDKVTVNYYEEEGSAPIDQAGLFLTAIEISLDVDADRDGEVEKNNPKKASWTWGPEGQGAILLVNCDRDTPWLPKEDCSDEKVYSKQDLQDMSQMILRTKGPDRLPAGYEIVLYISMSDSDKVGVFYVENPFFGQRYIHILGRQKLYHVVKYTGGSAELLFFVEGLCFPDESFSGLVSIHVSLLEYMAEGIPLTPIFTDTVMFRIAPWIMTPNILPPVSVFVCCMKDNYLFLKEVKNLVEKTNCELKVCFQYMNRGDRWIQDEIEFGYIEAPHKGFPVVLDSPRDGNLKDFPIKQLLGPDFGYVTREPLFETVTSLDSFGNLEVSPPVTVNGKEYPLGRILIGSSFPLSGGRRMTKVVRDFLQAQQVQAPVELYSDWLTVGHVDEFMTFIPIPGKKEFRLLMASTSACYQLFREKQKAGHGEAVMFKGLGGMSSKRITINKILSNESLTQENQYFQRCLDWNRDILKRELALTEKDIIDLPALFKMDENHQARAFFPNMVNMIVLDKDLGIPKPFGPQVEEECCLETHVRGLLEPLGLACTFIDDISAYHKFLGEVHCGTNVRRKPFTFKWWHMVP

[3] = target: T2, Protein-arginine deiminase type-4 (Homo sapiens, UniProt Q9UM07); experiment: Inhibition of full length recombinant human N-terminal GST-tagged PAD4 expressed in baculovirus infected Sf9 cells up to 10 mM using benzoyl arginine ethylester as substrate preincubated for 30 mins followed by substrate addition measured after 30 mins by colorimetric assay
T2 sequence (Q9UM07 whole entry): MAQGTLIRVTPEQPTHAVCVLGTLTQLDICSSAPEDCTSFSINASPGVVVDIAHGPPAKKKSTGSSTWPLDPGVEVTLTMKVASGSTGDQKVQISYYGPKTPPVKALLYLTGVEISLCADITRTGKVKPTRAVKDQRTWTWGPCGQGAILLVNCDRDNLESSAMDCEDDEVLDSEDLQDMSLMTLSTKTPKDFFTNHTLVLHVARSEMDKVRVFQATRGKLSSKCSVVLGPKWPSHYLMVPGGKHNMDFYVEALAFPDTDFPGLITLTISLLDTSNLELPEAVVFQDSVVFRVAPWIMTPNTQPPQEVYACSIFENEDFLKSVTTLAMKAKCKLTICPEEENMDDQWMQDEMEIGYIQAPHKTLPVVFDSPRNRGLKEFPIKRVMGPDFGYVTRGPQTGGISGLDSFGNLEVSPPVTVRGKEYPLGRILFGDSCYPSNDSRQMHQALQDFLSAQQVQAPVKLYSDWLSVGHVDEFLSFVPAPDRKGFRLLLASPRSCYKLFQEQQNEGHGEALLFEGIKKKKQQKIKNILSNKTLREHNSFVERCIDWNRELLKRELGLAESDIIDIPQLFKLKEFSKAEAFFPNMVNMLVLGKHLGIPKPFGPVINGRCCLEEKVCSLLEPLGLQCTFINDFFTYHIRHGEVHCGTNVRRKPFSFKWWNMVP

Mus musculus [4] = experiment: Antiinflammatory activity in MOG peptide/complete freund's adjuvant/pertussis toxin-induced C57BL/6 mouse autoimmune encephalomyelitis model assessed as improvement in physical disability at 100 mg/kg, ip administered once daily for 40 days measured daily during compound dosing; assay type: functional, organism-based
Mus musculus [5] = experiment: Toxicity in MOG peptide/complete freund's adjuvant/pertussis toxin-induced C57BL/6 mouse autoimmune encephalomyelitis model assessed as change in body weight at 100 mg/kg, ip administered once daily for 40 days measured during compound dosing; assay type: organism-based; conditions: in vivo, 960 h
[6] = target: T3, Protein-arginine deiminase type-1 (Homo sapiens, UniProt Q9ULC6); experiment: Inhibition of human PAD1 using BAEE as substrate preincubated for 30 mins followed by substrate addition measured after 30 mins by colorimetric assay
T3 sequence (Q9ULC6 whole entry): T1 sequence (whole entry)

[7] = target: Protein-arginine deiminase type-2 (Mus musculus, UniProt Q08642); experiment: Inhibition of full length recombinant mouse N-terminal GST-tagged PAD2 expressed in baculovirus infected Sf9 cells using benzoyl arginine ethyl ester as substrate preincubated for 30 mins followed by substrate addition measured after 30 mins by colorimetric assay
Chain of Protein-arginine deiminase type-2 (Q08642 whole entry): as the sequence (Q08642 whole entry) above

[8] = target: T2, Protein-arginine deiminase type-4; experiment: Inhibition of full length recombinant human N-terminal GST-tagged PAD4 expressed in baculovirus infected Sf9 cells using benzoyl arginine ethylester as substrate preincubated for 30 mins followed by substrate addition measured after 30 mins by colorimetric assay
[9] = Toxicity in MOG peptide/complete freund's adjuvant/pertussis toxin-induced C57BL/6 mouse autoimmune encephalomyelitis model assessed as death at 100 mg/kg, ip administered once daily for 40 days measured during compound dosing (reference value: 21%); assay type: organism-based; conditions: in vivo, read-out: Activity
Mus musculus [10] = experiment: (§1) Antiinflammatory activity in MOG peptide/complete freund's adjuvant/pertussis toxin-induced C57BL/6 mouse autoimmune encephalomyelitis model assessed as reduction in accumulation of CD3 positive cells in brain at 100 mg/kg, ip administered once daily for 40 days measured post last dose; assay type: functional, organism-based
Mus musculus [11] = experiment: Antiinflammatory activity in MOG peptide/complete freund's adjuvant/pertussis toxin-induced C57BL/6 mouse autoimmune encephalomyelitis model assessed as reduction in accumulation of MAC3 positive cells in brain at 100 mg/kg, ip administered once daily for 40 days measured post last dose; assay type: functional, organism-based
Mus musculus [12] = experiment: as §1, with “inflammatory lesions” for “accumulation of CD3 positive cells”, “dose by hematoxylin and eosin/Luxol-fast blue staining based assay” for “dose”; assay type: functional, organism-based
[13] = AUC (0 to 360 mins) in C57BL/6 mouse brain at 100 mg/kg, ip administered as single dose by UPLC-MS analysis; assay type: ADME, organism-based; set-up: dose 100 mg/kg, time < 6 hr, route intraperitoneal
Mus musculus [14] = experiment: Antiinflammatory activity in ip dosed MOG peptide/complete freund's adjuvant/pertussis toxin-induced C57BL/6 mouse autoimmune encephalomyelitis model assessed as improvement in physical disability administered once daily for 40 days measured daily during compound dosing; assay type: functional, organism-based
[15] = Elimination rate constant in C57BL/6 mouse brain at 100 mg/kg, ip administered as single dose by UPLC-MS analysis; assay type: ADME, organism-based
[16] = AUC (0 to 360 mins) in C57BL/6 mouse serum at 100 mg/kg, ip administered as single dose by UPLC-MS analysis; assay type: ADME, organism-based; set-up: time < 6 hr, dose 100 mg/kg, route intraperitoneal
[17] = Tmax in C57BL/6 mouse serum at 100 mg/kg, ip administered as single dose by UPLC-MS analysis; assay type: ADME, organism-based
Mus musculus [18] = experiment: Antiinflammatory activity in MOG peptide/complete freund's adjuvant/pertussis toxin-induced C57BL/6 mouse autoimmune encephalomyelitis model assessed as improvement in physical disability at 50 mg/kg, ip administered once daily for 40 days measured daily during compound dosing; assay type: functional, organism-based
[19] = Cmax in C57BL/6 mouse serum at 100 mg/kg, ip administered as single dose by UPLC-MS analysis; assay type: ADME, organism-based; set-up: dose 100 mg/kg, route intraperitoneal
[20] = Cmax in C57BL/6 mouse brain at 100 mg/kg, ip administered as single dose by UPLC-MS analysis; assay type: ADME, organism-based; set-up: dose 100 mg/kg, route intraperitoneal
Mus musculus [21] = experiment: Neuroprotective activity in CPZ-induced demyelination C57BL/6 mouse model assessed as increase in myelin content at 100 mg/kg, ip dosed daily for 6 weeks measured post last dose by LFB staining based immunohistochemical method; assay type: functional, organism-based
[22] = Elimination rate constant in C57BL/6 mouse serum at 100 mg/kg, ip administered as single dose by UPLC-MS analysis; assay type: ADME, organism-based
[23] = Half life in C57BL/6 mouse serum at 100 mg/kg, ip administered as single dose by UPLC-MS analysis; assay type: ADME, organism-based
[24] = Tmax in C57BL/6 mouse brain at 100 mg/kg, ip administered as single dose by UPLC-MS analysis; assay type: ADME, organism-based
[25] = Toxicity in MOG peptide/complete freund's adjuvant/pertussis toxin-induced C57BL/6 mouse autoimmune encephalomyelitis model assessed as death at 50 mg/kg, ip administered once daily for 40 days measured during compound dosing (reference value: 20%); assay type: organism-based; conditions: in vivo, read-out: Activity
[26] = Half life in C57BL/6 mouse brain at 100 mg/kg, ip administered as single dose by UPLC-MS analysis; assay type: ADME, organism-based
Mus musculus [27] = experiment: (§2) Antiinflammatory activity in MOG peptide/complete freund's adjuvant/pertussis toxin-induced C57BL/6 mouse autoimmune encephalomyelitis model assessed as increase in myelin content at 100 mg/kg, ip administered once daily for 40 days measured post last dose by LFB /H and E staining based assay; assay type: functional, organism-based
Mus musculus [28] = experiment: as §2, with “activity” for “activity in”, “reduction” for “increase”, “scar tissue around blood vessels in brain” for “myelin content”, “LFB/H” for “LFB /H”; assay type: functional, organism-based
Mus musculus [29] = experiment: Toxicity in MOG peptide/complete freund's adjuvant/pertussis toxin-induced C57BL/6 mouse autoimmune encephalomyelitis model assessed as change in body weight at 50 mg/kg, ip administered once daily for 40 days measured during compound dosing; assay type: organism-based; conditions: in vivo, 960 h

With `CC(C)c1nccn1CCN1C(=O)NC(C)(C)C1=O` the inhibition [1] was “inactive”, the inhibition [2] was “inactive” and the inhibition [3] was “inactive”.

In the case of `CC1(C)NC(=O)N(CN2CCNCC2)C1=O`, the Activity (Mus musculus [4]) is reported as “Active”, the Activity (Mus musculus [5]) is reported as “Non-Toxic” and the Ki [6] is reported as 445 µM. It also gave a Ki [7] of 179 µM and a Ki [8] of 183 µM.

In the case of `CC1(C)NC(=O)N(CCn2cncn2)C1=O`, the inhibition [1] is reported as “inactive”, the inhibition [2] is reported as “inactive” and the inhibition [3] is reported as “inactive”.

With `Cc1cnc(C)n1CCN1C(=O)NC(C)(C)C1=O` the inhibition [1] was “inactive”, the inhibition [2] was “inactive” and the inhibition [3] was “inactive”.

In the case of `Cc1nccn1CCN1C(=O)NC(C)(C)C1=O`, the Ki [6] is reported as 2420 µM, the inhibition [2] is reported as “inactive” and the inhibition [3] is reported as “inactive”.

In the case of `CC1(C)NC(=O)N(CCn2cncc2CO)C1=O`, the inhibition [1] is reported as “inactive”, the inhibition [2] is reported as “inactive” and the inhibition [3] is reported as “inactive”.

With `CC1(C)NC(=O)N(CCN2CCCC2)C1=O` the inhibition [1] was “inactive”, the inhibition [2] was “inactive” and the Ki [8] was 4640 µM.

For `CN1CCN(CCN2C(=O)NC(C)(C)C2=O)CC1`, the inhibition [1] was “inactive”, the inhibition [2] was “inactive” and the inhibition [3] was “inactive”.

In the case of `CC1(C)NC(=O)N(CCN2CCOCC2)C1=O`, the Ki [6] is reported as 602 µM and the Ki [8] is reported as 1430 µM.

In the case of `CC1(C)NC(=O)N(CCc2nnn[nH]2)C1=O`, the Activity (Mus musculus [4]) is reported as “Active”, the mortality at 960 h [9] is reported as 8% and the Activity (Mus musculus [10]) is reported as “Active”. The Activity (Mus musculus [5]) was “Non-Toxic”, the Ki [6] was 384 µM and the Ki [7] was 30 µM. For the same molecule, the Activity (Mus musculus [11]) was “Active” and the Activity (Mus musculus [12]) was “Active”.

With `CC1(C)NC(=O)N(CCn2ccnn2)C1=O` the inhibition [1] was “inactive”, the inhibition [2] was “inactive” and the inhibition [3] was “inactive”.

In the case of `CC1(C)NC(=O)N(CCn2ccnc2)C1=O`, the AUC(0-t) at 6 h [13] is reported as 12.3 ng·h/mL, the Activity (Mus musculus [4]) is reported as “Active” and the Activity (Mus musculus [14]) is reported as “Dose-dependent effect”. For the same molecule, the mortality at 960 h [9] was 0%, the k el [15] was 0.000117 s⁻¹ and the inhibition [1] was “inactive”. The Activity (Mus musculus [10]) was “Active”, the AUC(0-t) at 6 h [16] was 28000 ng·h/mL and the Tmax [17] was 5 min. For the same molecule, the Activity (Mus musculus [18]) was “inactive”, the Cmax [19] was 79900 ng/mL and the Activity (Mus musculus [5]) was “Non-Toxic”. The Cmax [20] was 7.3 ng/mL, the Activity (Mus musculus [21]) was “Active” and the k el [22] was 0.000917 s⁻¹. It also gave a Ki [7] of 4620 µM, a half-life [23] of 12.6 min and a Ki [8] of 632 µM. The Tmax [24] was 45 min, the Activity (Mus musculus [11]) was “Active” and the mortality at 960 h [25] was 29%. For the same molecule, the half-life [26] was 99 min, the Activity (Mus musculus [27]) was “Active” and the Activity (Mus musculus [12]) was “Active”. For the same molecule, the Activity (Mus musculus [28]) was “Active” and the Activity (Mus musculus [29]) was “Non-Toxic”.

With `CC1(C)NC(=O)N(CCN2CCNCC2)C1=O` the inhibition [1] was “inactive”, the Ki [7] was 714 µM and the inhibition [3] was “inactive”.

For `Cc1cn(CCN2C(=O)NC(C)(C)C2=O)cn1`, the inhibition [1] was “inactive”, the inhibition [2] was “inactive” and the inhibition [3] was “inactive”.
